From PubChem BioAssay AID256 (DTP/NCI, 2004)
Where “and” joins values, the source holds several entries; their conditions need not be identical. Identical values can stand only once. Inconclusive results and toxic doses are left out.

Test system: CD2F1 mice, L1210 leukemia ip, survival T/C
Experiment: NCI In Vivo Anticancer Drug Screen. Data for tumor model L1210 Leukemia (intraperitoneal) in CD2F1 (CDF1) mice
Conditions: higher = longer survival
How it was run: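 Read-out first: treated-group measurement over vehicle-control measurement, expressed as a ratio. Animals bore a transplanted tumor line and were dosed with compound or vehicle.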

[1] = endpoint: mean survival time, dose: 100.0 mg/kg/injection, schedule: Q04DX003 (ip), vehicle: saline
[2] = endpoint: mean survival time, dose: 200.0 mg/kg/injection, schedule: Q04DX003 (ip), vehicle: saline
[3] = endpoint: mean survival time, dose: 50.0 mg/kg/injection, schedule: Q01DX009 (ip), vehicle: saline with Tween-80
[4] = endpoint: mean survival time, dose: 100.0 mg/kg/injection, schedule: Q01DX009 (ip), vehicle: saline with Tween-80
[5] = endpoint: mean survival time, dose: 200.0 mg/kg/injection, schedule: Q01DX009 (ip), vehicle: saline with Tween-80

Nc1nc([Se]Cc2ccc([N+](=O)[O-])cc2)c2ncn(C3OC(CO)C(O)C3O)c2n1 (configuration not stated)
T/C (endpoint: mean survival time, dose: 25.0 mg/kg/injection, schedule: Q01DX009 (ip), vehicle: saline): 111 % of control
T/C (endpoint: mean survival time, dose: 50.0 mg/kg/injection, schedule: Q01DX009 (ip), vehicle: saline): 119 % of control
T/C (endpoint: mean survival time, dose: 100.0 mg/kg/injection, schedule: Q01DX009 (ip), vehicle: saline): 100 % of control

Cc1ccccc1NC(=O)Oc1ccc(-c2ccccc2)cc1Cl
T/C (endpoint: mean survival time, dose: 100.0 mg/kg/injection, schedule: Q04DX002 (ip), vehicle: saline with Tween-80): 86 % of control
T/C (endpoint: mean survival time, dose: 200.0 mg/kg/injection, schedule: Q04DX002 (ip), vehicle: saline with Tween-80): 89 % of control
T/C (endpoint: mean survival time, dose: 400.0 mg/kg/injection, schedule: Q04DX002 (ip), vehicle: saline with Tween-80): 93 % of control

Nc1nc(=O)n(C2OC(CO)C(O)C2O)c(=O)[nH]1 (configuration not stated)
T/C (endpoint: mean survival time, dose: 3.12 mg/kg/injection, schedule: Q04DX003 (ip), vehicle: saline): 108 % of control
T/C (endpoint: mean survival time, dose: 6.25 mg/kg/injection, schedule: Q04DX003 (ip), vehicle: saline): 97 % of control
T/C (endpoint: mean survival time, dose: 12.5 mg/kg/injection, schedule: Q04DX003 (ip), vehicle: saline): 103 % of control
T/C (endpoint: mean survival time, dose: 25.0 mg/kg/injection, schedule: Q04DX003 (ip), vehicle: saline): 95 % of control
T/C (endpoint: mean survival time, dose: 50.0 mg/kg/injection, schedule: Q04DX003 (ip), vehicle: saline): 92 % of control
T/C [1]: 100 % of control
T/C [2]: 95 % of control

CCOC(=O)CN1C(=O)c2ccccc2C1=O
T/C (endpoint: mean survival time, dose: 12.5 mg/kg/injection, schedule: Q01DX009 (ip), vehicle: other): 97 % of control
T/C (endpoint: mean survival time, dose: 25.0 mg/kg/injection, schedule: Q01DX009 (ip), vehicle: other): 97 % of control
T/C (endpoint: mean survival time, dose: 50.0 mg/kg/injection, schedule: Q01DX009 (ip), vehicle: other): 98 % of control
T/C [3]: 88 % of control
T/C (endpoint: mean survival time, dose: 100.0 mg/kg/injection, schedule: Q01DX009 (ip), vehicle: other): 93 % of control
T/C [4]: 103 % of control
T/C (endpoint: mean survival time, dose: 200.0 mg/kg/injection, schedule: Q01DX009 (ip), vehicle: other): 97 % of control
T/C [5]: 92 % of control

[Cl][Dy]([Cl])[Cl]
T/C [3]: 89 % of control
T/C [5]: 90 % of control

C(=N/NC1=NCCN1)/c1c2ccccc2c(/C=N\NC2=NCCN2)c2ccccc12
T/C (endpoint: median survival time, dose: 0.37 mg/kg/injection, schedule: Q01DX009 (ip), vehicle: suspension in saline): 152 % of control
T/C (endpoint: median survival time, dose: 1.56 mg/kg/injection, schedule: Q01DX009 (ip), vehicle: saline): 170 % of control
T/C (endpoint: median survival time, dose: 3.0 mg/kg/injection, schedule: Q01DX009 (ip), vehicle: suspension in saline): 172 % of control
T/C (endpoint: median survival time, dose: 3.12 mg/kg/injection, schedule: Q01DX009 (ip), vehicle: saline): 370 % of control
T/C (endpoint: median survival time, dose: 6.25 mg/kg/injection, schedule: Q01DX009 (ip), vehicle: saline): 172 % of control
T/C (endpoint: median survival time, dose: 12.5 mg/kg/injection, schedule: Q01DX009 (ip), vehicle: saline): 164 % of control and 180 % of control
T/C (endpoint: median survival time, dose: 25.0 mg/kg/injection, schedule: Q01DX009 (ip), vehicle: saline): 176 % of control
T/C (endpoint: median survival time, dose: 48.0 mg/kg/injection, schedule: Q01DX009 (ip), vehicle: suspension in saline): 113 % of control

Cc1csc2ncnc(Cl)c12
T/C (endpoint: mean survival time, dose: 100.0 mg/kg/injection, schedule: Q01DX001 (ip), vehicle: saline with Tween-80): 101 % of control
T/C (endpoint: mean survival time, dose: 200.0 mg/kg/injection, schedule: Q01DX001 (ip), vehicle: saline with Tween-80): 97 % of control
T/C (endpoint: mean survival time, dose: 400.0 mg/kg/injection, schedule: Q01DX001 (ip), vehicle: saline with Tween-80): 97 % of control

N#CSc1ccc(Nc2ccc(SC#N)cc2)cc1
T/C (endpoint: mean survival time, dose: 12.5 mg/kg/injection, schedule: Q04DX003 (ip), vehicle: Klucel (hydroxypropylcellulose) (HPC)): 113 % of control
T/C (endpoint: mean survival time, dose: 25.0 mg/kg/injection, schedule: Q04DX003 (ip), vehicle: Klucel (hydroxypropylcellulose) (HPC)): 109 % of control
T/C (endpoint: mean survival time, dose: 50.0 mg/kg/injection, schedule: Q04DX003 (ip), vehicle: Klucel (hydroxypropylcellulose) (HPC)): 107 % of control

O=C1CC(NCCO)C(=O)NN1 (configuration not stated)
T/C [1]: 101 % of control
T/C [2]: 101 % of control
T/C (endpoint: mean survival time, dose: 400.0 mg/kg/injection, schedule: Q04DX003 (ip), vehicle: saline): 104 % of control

O=C(O)CCCCc1ccc([N+](=O)[O-])cc1
T/C (endpoint: mean survival time, dose: 100.0 mg/kg/injection, schedule: Q04DX002 (ip), vehicle: other): 105 % of control
T/C (endpoint: mean survival time, dose: 200.0 mg/kg/injection, schedule: Q04DX002 (ip), vehicle: other): 102 % of control
T/C (endpoint: mean survival time, dose: 400.0 mg/kg/injection, schedule: Q04DX002 (ip), vehicle: other): 97 % of control

O=NN(CCCl)C(=S)NCCCl
T/C (endpoint: mean survival time, dose: 1.87 mg/kg/injection, schedule: Q01DX001 (ip), vehicle: distilled water + Tween-80): 113 % of control
T/C (endpoint: mean survival time, dose: 3.75 mg/kg/injection, schedule: Q01DX001 (ip), vehicle: distilled water + Tween-80): 115 % of control
T/C (endpoint: mean survival time, dose: 15.0 mg/kg/injection, schedule: Q01DX001 (ip), vehicle: distilled water + Tween-80): 159 % of control and 215 % of control
T/C (endpoint: mean survival time, dose: 30.0 mg/kg/injection, schedule: Q01DX001 (ip), vehicle: distilled water + Tween-80): 318 % of control

O/N=C/C=N/O.O/N=C/C=N/O.[Pd]
T/C (endpoint: mean survival time, dose: 6.25 mg/kg/injection, schedule: Q01DX009 (ip), vehicle: saline with Tween-80): 100 % of control

COC(=O)Cc1nc2ccccc2[nH]c1=O
T/C [3]: 103 % of control
T/C [4]: 92 % of control
T/C [5]: 100 % of control

CCOC(=O)Nc1cc(NCc2ccccc2)c([N+](=O)[O-])c(N)n1
T/C (endpoint: mean survival time, dose: 12.5 mg/kg/injection, schedule: Q01DX001 (ip), vehicle: Klucel (hydroxypropylcellulose) (HPC)): 109 % of control
T/C (endpoint: mean survival time, dose: 25.0 mg/kg/injection, schedule: Q01DX001 (ip), vehicle: Klucel (hydroxypropylcellulose) (HPC)): 101 % of control
T/C (endpoint: mean survival time, dose: 50.0 mg/kg/injection, schedule: Q01DX001 (ip), vehicle: Klucel (hydroxypropylcellulose) (HPC)): 91 % of control

CCN(CC)C(=S)S
T/C (endpoint: mean survival time, dose: 100.0 mg/kg/injection, schedule: Q04DX003 (ip), vehicle: other): 94 % of control
T/C (endpoint: mean survival time, dose: 200.0 mg/kg/injection, schedule: Q04DX003 (ip), vehicle: other): 97 % of control
T/C (endpoint: mean survival time, dose: 400.0 mg/kg/injection, schedule: Q04DX003 (ip), vehicle: other): 103 % of control
